Measurements as given in patent publication US20040116336A1, “Peptide derivatives” (priority 2002, published 2004).
Non-standard residues stand in square brackets, D forms with d. Residues, ends and D or L forms follow the SMILES beside them. Phe(4-Cl) = N[C@@H](Cc1ccc(Cl)cc1)C(=O)O; Cha = N[C@@H](CC1CCCCC1)C(=O)O

Assays:
[1] = target: T1, APJ (Homo sapiens, UniProt P35414); assay: Receptor binding assay-2 (compound in Reference Example 2 used); settings: compound in Reference Example 2 used as ligand; read-out: IC50
T1 construct: expressed in transfected cells; host or cells: CHO (CHO-A10; clone 6 for the cAMP assay)
T1 sequence (P35414 1-380): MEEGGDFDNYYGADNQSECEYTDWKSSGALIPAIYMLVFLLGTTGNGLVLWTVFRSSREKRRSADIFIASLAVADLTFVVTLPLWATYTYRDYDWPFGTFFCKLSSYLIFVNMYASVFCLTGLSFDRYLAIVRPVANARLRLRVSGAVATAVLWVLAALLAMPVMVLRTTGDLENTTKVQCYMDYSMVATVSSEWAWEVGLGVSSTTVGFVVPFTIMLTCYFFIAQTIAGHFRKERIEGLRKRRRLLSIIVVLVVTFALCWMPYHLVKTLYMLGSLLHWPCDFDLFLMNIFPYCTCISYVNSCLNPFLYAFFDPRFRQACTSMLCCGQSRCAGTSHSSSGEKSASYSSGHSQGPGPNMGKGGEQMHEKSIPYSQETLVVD

[2] = target: T1, APJ; assay: Inhibitory activity on forskolin-stimulated cAMP production in CHO-A10 clone 6 cells; format: cell-based; settings: read-out: EC50
[3] = target: T1, APJ; assay: Receptor binding assay-1 (125I-labeled compound in Reference Example 1, CHO-A10 membrane fraction); settings: 125I-labeled compound in Reference Example 1 at 100 pM, room temperature […]
Procedure: This product was mixed with an equal volume of an assay buffer (50 mM Tris-HCl/pH 7.5, 5 mM EDTA, 0.5 mM PMSF, 20 μg/ml leupeptin, 0.1 μg/ml pepstatin A, 4 μg/ml E-64 (Peptide Research Laboratory, Co.), 0.1% bovine serum albumin) and stored at −30° C. before use.
CHO-A10 cells were cultured, recovered with PBS containing 5 mM EDTA from a culture vessel, and suspended in the above-mentioned assay buffer not containing bovine serum albumin. The cells were homogenized 3 times at 12,000 rpm for 15 seconds by a Polytron homogenizer (manufactured by Kinematica Inc.) and then centrifuged (1000×g, 4° C., 10 minutes), and the supernatant was recovered. The precipitates were subjected again to the same procedure as above, and the respective supernatants were combined and centrifuged at 100,000×g, 4° C. for 1 hour, to recover precipitates (membrane fraction). The membrane fraction was suspended again in a small amount of the buffer, homogenized with a Teflon homogenizer and stored at −80° C. before use.
Binding assay was carried out under the following conditions. […] Measurement of non-specific binding was carried out using a well containing 1 μM unlabeled compound in place of the test sample. After the incubation was finished, a cell harvester (Packard) adapted to 96 wells and a filter unit (GF/C, Packard) were used for separation thereby capturing the membrane fraction on the filter. After the filter was sufficiently dried, Microcinti 0 (Packard) was added thereto, and using Top Count (Packard), the amount of the labeled material captured together with the membrane fraction on the filter was measured.

| Compound | IC50 [1] [nM] | EC50 [2] [nM] | IC50 [3] [nM] |
| --- | --- | --- | --- |
| H-RPRLSARGPMPF-OH [Compound in Ex. 24] | 0.057 | 0.25 | 27 |
| CC(C)C[C@H](NC(=O)[C@H](CCCNC(=N)N)NC(=O)[C@@H]1CCCN1C(=O)[C@@H](N)CCCNC(=N)N)C(=O)N[C@@H](CO)C(=O)N[C@@H](C)C(=O)N[C@@H](CCCNC(=N)N)C(=O)NCC(=O)N1CCC[C@H]1C(=O)N[C@@H](CC1CCCCC1)C(=O)N1CCC[C@H]1C(=O)N[C@@H](Cc1ccc(Cl)cc1)C(=O)O [Compound in Ex. 5] (H-RPRLSARGP[Cha]P[Phe(4-Cl)]-OH) | 0.13 | 0.51 | 1.2 |
| CSCC[C@H](NC(=O)[C@@H]1CCCN1C(=O)CNC(=O)[C@H](CCCNC(=N)N)NC(=O)[C@H](C)NC(=O)[C@H](CO)NC(=O)[C@H](CC(C)C)NC(=O)[C@H](CCCNC(=N)N)NC(=O)[C@@H]1CCCN1C(=O)[C@@H](N)CCCNC(=N)N)C(=O)N1CCC[C@H]1C(=O)N[C@@H](Cc1ccc(Cl)cc1)C(=O)O [Compound in Ex. 3] (H-RPRLSARGPMP[Phe(4-Cl)]-OH; N-terminus and C-terminus assumed) | 0.036 | 0.32 | 0.91 |
| CC(C)C[C@H](NC(=O)[C@H](CCCNC(=N)N)NC(=O)[C@@H]1CCCN1C(=O)[C@@H](N)CCCNC(=N)N)C(=O)N[C@@H](CO)C(=O)N[C@@H](C)C(=O)N[C@@H](CCCNC(=N)N)C(=O)NCC(=O)N1CCC[C@H]1C(=O)N[C@@H](CC1CCCCC1)C(=O)N1CCC[C@H]1C(=O)N[C@@H](Cc1ccccc1)C(=O)O [Compound in Ex. 11] (H-RPRLSARGP[Cha]PF-OH; N-terminus and C-terminus assumed) | 0.084 | 0.59 | 2.2 |
| CC(C)C[C@H](NC(=O)[C@H](CCCNC(=N)N)NC(=O)[C@@H]1CCCN1C(=O)[C@H](CCCNC(=N)N)NC(=O)[C@H](CCC(N)=O)NC(=O)[C@H](CCCNC(=N)N)NC(=O)[C@@H](N)CCCNC(=N)N)C(=O)N[C@@H](CO)C(=O)N[C@@H](C)C(=O)N[C@@H](CCCNC(=N)N)C(=O)NCC(=O)N1CCC[C@H]1C(=O)N[C@@H](CC1CCCCC1)C(=O)O [Compound in Ex. 6] | 0.046 | 0.55 | 1.4 |
| CSCC[C@H](NC(=O)[C@@H]1CCCN1C(=O)CNC(=O)[C@H](CCCCN)NC(=O)[C@H](Cc1c[nH]cn1)NC(=O)[C@H](CO)NC(=O)[C@H](CC(C)C)NC(=O)[C@H](CCCNC(=N)N)NC(=O)[C@@H]1CCCN1C(=O)[C@H](CCCNC(=N)N)NC(=O)[C@H](CCCCN)NC(=O)[C@H](CCCNC(=N)N)NC(=O)[C@@H](N)CCCNC(=N)N)C(=O)N1CCC[C@H]1C(=O)N[C@@H](Cc1ccccc1)C(=O)O [Compound in Ex. 23] | 0.09 | 0.31 | 9.2 |
| CSCC[C@H](NC(=O)[C@@H]1CCCN1C(=O)CNC(=O)[C@H](CCCCN)NC(=O)[C@H](Cc1c[nH]cn1)NC(=O)[C@H](Cc1ccccc1)NC(=O)[C@H](CC(C)C)NC(=O)[C@H](CCCNC(=N)N)NC(=O)[C@@H]1CCCN1C(=O)[C@@H](N)CCCNC(=N)N)C(=O)N1CCC[C@H]1C(=O)N[C@@H](Cc1ccc(Cl)cc1)C(=O)O [Compound in Ex. 16] (H-RPRLFHKGPMP[Phe(4-Cl)]-OH; N-terminus and C-terminus assumed) | 0.066 | 0.38 | 8 |

More lines, in order of falling IC50 [1], values ahead:

| IC50 [1] [nM] | EC50 [2] [nM] | IC50 [3] [nM] | Compound |
| --- | --- | --- | --- |
| 0.33 | 0.53 | 0.47 | CC(C)C[C@H](NC(=O)[C@H](CCCNC(=N)N)NC(=O)[C@@H]1CCCN1C(=O)[C@H](CCCNC(=N)N)NC(=O)[C@H](CCC(N)=O)NC(=O)[C@H](CCCNC(=N)N)NC(=O)[C@@H](N)CCCNC(=N)N)C(=O)N[C@@H](CO)C(=O)N[C@@H](Cc1c[nH]cn1)C(=O)N[C@@H](CCCCN)C(=O)NCC(=O)N1CCC[C@H]1C(=O)N[C@@H](CC1CCCCC1)C(=O)N1CCC[C@H]1C(=O)N[C@@H](Cc1ccc(Cl)cc1)C(=O)O [Compound in Ex. 2] |
| 0.29 | 1 | 2.7 | CC(C)C[C@H](NC(=O)[C@H](CCCNC(=N)N)NC(=O)[C@@H]1CCCN1C(=O)[C@@H](N)CCCNC(=N)N)C(=O)N[C@@H](Cc1ccccc1)C(=O)N[C@@H](Cc1c[nH]cn1)C(=O)N[C@@H](CCCCN)C(=O)NCC(=O)N1CCC[C@H]1C(=O)N[C@@H](CC1CCCCC1)C(=O)N1CCC[C@H]1C(=O)N[C@@H](Cc1ccc(Cl)cc1)C(=O)O [Compound in Ex. 13] (H-RPRLFHKGP[Cha]P[Phe(4-Cl)]-OH; N-terminus and C-terminus assumed) |
| 0.13 | 0.46 | 8 | CC(C)C[C@H](NC(=O)[C@H](CCCNC(=N)N)NC(=O)[C@@H]1CCCN1C(=O)[C@@H](N)CCCNC(=N)N)C(=O)N[C@@H](Cc1ccccc1)C(=O)N[C@@H](Cc1c[nH]cn1)C(=O)N[C@@H](CCCCN)C(=O)NCC(=O)N1CCC[C@H]1C(=O)N[C@@H](CC1CCCCC1)C(=O)N1CCC[C@H]1C(=O)N[C@@H](Cc1ccccc1)C(=O)O [Compound in Ex. 15] (H-RPRLFHKGP[Cha]PF-OH; N-terminus and C-terminus assumed) |
| 0.12 | 0.41 | 1.4 | CC(C)C[C@H](NC(=O)[C@H](CCCNC(=N)N)NC(=O)[C@@H]1CCCN1C(=O)[C@@H](N)CCCNC(=N)N)C(=O)N[C@@H](CO)C(=O)N[C@@H](Cc1c[nH]cn1)C(=O)N[C@@H](CCCCN)C(=O)NCC(=O)N1CCC[C@H]1C(=O)N[C@@H](CC1CCCCC1)C(=O)N1CCC[C@H]1C(=O)N[C@@H](Cc1ccc(Cl)cc1)C(=O)O [Compound in Ex. 7] |
| 0.1 | 0.65 | 1 | CC(C)C[C@H](NC(=O)[C@H](CCCNC(=N)N)NC(=O)[C@@H]1CCCN1C(=O)[C@@H](N)CCCNC(=N)N)C(=O)N[C@@H](CO)C(=O)N[C@@H](C)C(=O)N[C@@H](CCCNC(=N)N)C(=O)NCC(=O)N1CCC[C@H]1C(=O)N[C@@H](CC1CCCCC1)C(=O)N[C@@H](Cc1ccc(Cl)cc1)C(=O)O [Compound in Ex. 4] (H-RPRLSARGP[Cha][Phe(4-Cl)]-OH; N-terminus and C-terminus assumed) |
| 0.027 | 0.28 | 2.7 | CCCC[C@H](NC(=O)[C@@H]1CCCN1C(=O)CNC(=O)[C@H](CCCCN)NC(=O)[C@H](Cc1c[nH]cn1)NC(=O)[C@H](CO)NC(=O)[C@H](CC(C)C)NC(=O)[C@H](CCCNC(=N)N)NC(=O)[C@@H]1CCCN1C(=O)[C@H](CCCNC(=N)N)NC(=O)[C@H](CCC(N)=O)NC(=O)[C@H](CCCNC(=N)N)NC(=O)[C@@H](N)CCCNC(=N)N)C(=O)N1CCC[C@H]1C(=O)N[C@@H](Cc1ccc(O)cc1)C(=O)O [Compound in Ex. 14] |
